# Laboratory results taken from US20240041830A1, “CIRCULATING BIOMARKERS OF RESPONSE TO PD-1/PD-L1 BLOCKADE AND GSK-3 INHIBITION” (Brown University, priority 2022, published 2024).
# Legend:
# [1] = tested on: SW480; experiment: multicolor co-culture of SW480 and TALL-104 T cells; format: cell-based, human
# From the text: Multicolor immune cell co-culture experiments.
# Elraglusib sensitizes tumor cells to immune-mediated cytotoxicity. […] FIG. 8A. TALL-104 cells are a human leukemic T cell line.
# FIG. 1A. […] FIG. 1B. […] FIG. 1C. […] FIG. 1D. […] FIG. 1E. […] FIG. 1F.
# [2] = tested on: refractory solid tumors of multiple tissue origins; experiment: Phase 1 clinical trial (NCT03678883), survival; format: in vivo, human
# Experimental: Clinical specimens. Archival tumor specimens and peripheral blood samples were collected from patients enrolled in the Phase I study of elraglusib (Clinicaltrials.gov NCT03678883) who received treatment at the Lifespan Cancer Institute (Providence, RI, USA). The analysis was conducted in accordance with the Declaration of Helsinki and the International Conference on Harmonization Good Clinical
# Patient plasma concentrations of cytokines from a Phase 1 clinical trial investigating elraglusib correlate with progression-free survival, overall survival, and in vivo response to therapy results. To determine the clinical relevance of the biomarkers of response identified in our murine model, the inventors next employed Luminex 200 technology to analyze plasma samples from patients with refractory solid tumors of multiple tissue origins enrolled in a Phase 1 clinical trial investigating elraglusib (NCT03678883).
# TABLE 14 description. Individual patient information for human cytokine analysis. Tumor type, elraglusib dose (mg, mg/kg), number of cycles, age at enrollment, sex, race, ethnicity, median progression free survival and median overall survival data is shown (N=19).
# [3] = tested on: HT-29 GFP+ cells; experiment: single-color GFP+ immune cell co-culture
# Experimental: Single-color immune cell co-culture experiments. A total of 5000 HT-29 GFP+ or HCT 116 GFP+ cells were plated per well in a clear-bottom, black-walled 96-well tissue culture plate and were allowed to adhere overnight. Cells were subsequently treated with DMSO, 5 μM elraglusib, or 5000 TALL-104 or NK-92 cells (for an effector-to-tumor ratio of 1:1) for forty-eight hours. Nine images were taken per well at 10× magnification using a Molecular Devices ImageXpress® Confocal HT.ai High-Content Imaging System and quantified for the number of GFP+ objects using the MetaXpress (RRID: SCR_016654) software (Molecular Devices, San Jose, CA, USA). 40× images were also taken at twenty-four hours for representative images of cellular morphology changes.
# To determine if pyroptosis-mediated immune cell activity played a role in the co-culture results, the inventors examined higher-power co-culture images for evidence of pyroptosis.
# [4] = tested on: 93T449 liposarcoma; experiment: Luminex cytokine profiling; format: cell-based; settings: 0.5 μM, twenty-four hours
# Experimental: (§1) Human cytokine profiling. Human cell line culture supernatants were analyzed using an R&D systems Human Premixed Multi-Analyte Kit (R&D Systems, Inc., Minneapolis, MN, USA) and a Luminex 200 (RRID: SCR_018025) Instrument (LX200-XPON-RUO, Luminex Corporation, Austin, TX, USA) according to the manufacturer's instructions. Sample levels of TNF-α, 4-1BB/TNFRSF9/CD137, IL-8/CXCL8, Ferritin, IFN-β, IL-10, CCL2/JE/MCP-1, VEGF, CXCL13/BLC/BCA-1, IFN-γ, CCL20/MIP-3 α, CCL3/MIP-1 α, CCL22/MDC, CCL4/MIP-1 β, Fas Ligand/TNFSF6, IL-17/1L-17A, IL-2, BAFF/BLyS/TNFSF13B, GM-CSF, CXCLS/ENA-78, TRANCE/TNFSF11/RANK L, CXCL9/MIG, G-CSF, IFN-γ R1/CD119, VEGFR3/Flt-4, C-Reactive Protein/CRP, CXCL11/I-TAC, IL-21, CXCL14/BRAK, IL-6, Fas/TNFRSF6/CD95, TRAIL R3/TNFRSF10C, IL-4, CCL5/RANTES, PD-L1/137-H1, CCL7/MCP-3/MARC, Chitinase 3-like 1, CXCL10/IP-10/CRG-2, IL-1 μ/IL-1F2, IL-7, Prolactin, CCL8/MCP-2, TRAIL R2/TNFRSF10B, M-CSF, IL-15, Granzyme B, IFN-α, TREM-1, IL-12/1L-23 p40, TRAIL/TNFSF10, CCL11/Eotaxin, and 1L-18/1L-1F4. Quantitative analysis with 6 standards and a minimum of 50 counts per bead region was used with the Luminex to generate analyte values reported as picograms/milliliter (pg/mL). Sample concentrations less than the lower limit of detection for each particular analyte were recoded as the lower limit value divided by 10. Sample concentrations above the upper limit of detection for a particular analyte were recoded as the upper limit of detection.
# (§2) Saos-2 osteosarcoma and 93T449 liposarcoma cell lines were pretreated at IC50 with elraglusib. The cells were harvested for Western blot analysis after 48 hours of treatment. Both cancer cell lines as well as TALL-104 T-cells and NK-92 NK cells were treated with 0.5 μM elraglusib for twenty-four hours and harvested for Luminex cytokine profiling.
# [5] = tested on: Saos-2 osteosarcoma; experiment: Luminex cytokine profiling; format: cell-based; settings: 0.5 μM, twenty-four hours
# Experimental: as §1, §2
# [6] = N=19 patients, multiple tumor types
# [7] = Subject 05003, Colorectal, 1 mg/kg
# [8] = Subject 05005, Colorectal, 1 mg/kg, 2 cycles
smiles,measurement,setting,value
Cn1cc(C2=C(c3coc4ccc(F)cc34)C(=O)NC2=O)c2cc3c(cc21)OCO3 [elraglusib],dead cells out of total cells,"[1]; co-culture with TALL-104, 5 μM, 24 hours, E:T 1:1, normalized, without drug approximately 45%",60%
same,dead cells out of total cells,"[1]; co-culture with TALL-104, 10 μM, 24 hours, E:T 1:1, normalized, without drug approximately 45%",65%
same,dead cells out of total cells,"[1]; tumor cells pre-treated 5 μM for twenty-four hours, then co-cultured with TALL-104",65%
same,median overall survival,[2]; [6],101 days
same,median progression-free survival,[2]; [6],75.9 days
same,OS,[2]; [7],26 days
same,PFS,[2]; [7],26 days
same,PFS,"[2]; Subject 05004, Colorectal, 1 mg/kg",28 days
same,OS,[2]; [8],105 days
same,PFS,[2]; [8],99 days
same,OS,"[2]; Subject 05006, HCC, 2 mg/kg",234 days
same,PFS,"[2]; Subject 05006, HCC, 2 mg/kg",234 days
same,PFS,"[2]; Subject 05009, Cholangiocarcinoma, 2 mg/kg",46 days
same,OS,"[2]; Subject 05011, NSCLC, 2 mg/kg",39 days
same,PFS,"[2]; Subject 05011, NSCLC, 2 mg/kg",31 days
same,PFS,"[2]; Subject 05013, Colorectal, 3.3 mg/kg",130 days
same,PFS,"[2]; Subject 05017, Colorectal, 5 mg/kg",83 days
same,PFS,"[2]; Subject 05018, NSCLC, 5 mg/kg",41 days
same,PFS,"[2]; Subject 05024, Appendix, 7 mg/kg",41 days
same,"tumor cell death, significance",[3]; NK-92 + elraglusib vs elraglusib only,did not show statistical significance
same,tumor cell death,[3]; NK-92 + elraglusib vs immune cells only and DMSO only,increased tumor cell death
same,tumor cell death,[3]; TALL-104 + 5 μM elraglusib vs drug-only or T cell-only,increased tumor cell death
same,pyroptotic events,"[3]; co-culture with TALL-104, 5 μM elraglusib",significant increase
same,TGF-α,[4],increase
same,TGF-α,[5],increase
same,IL-6,[5]; only Saos-2,increase
